From patent publication US20120101110A1, “Diaza-spiro[5.5]undecanes” (priority 2010, published 2012)

Key:
human orexin 2 receptors [1] = biological target: T1, human orexin 2 receptors (Homo sapiens, UniProt O43614); assay: Calcium accumulation in cells (FLIPR), hOx2R; format: cell-based; conditions: cells expressing human orexin 2 receptor; inhibition of orexin A-induced calcium accumulation; Cheng and Prusoff correction
T1 sequence (O43614 1-444): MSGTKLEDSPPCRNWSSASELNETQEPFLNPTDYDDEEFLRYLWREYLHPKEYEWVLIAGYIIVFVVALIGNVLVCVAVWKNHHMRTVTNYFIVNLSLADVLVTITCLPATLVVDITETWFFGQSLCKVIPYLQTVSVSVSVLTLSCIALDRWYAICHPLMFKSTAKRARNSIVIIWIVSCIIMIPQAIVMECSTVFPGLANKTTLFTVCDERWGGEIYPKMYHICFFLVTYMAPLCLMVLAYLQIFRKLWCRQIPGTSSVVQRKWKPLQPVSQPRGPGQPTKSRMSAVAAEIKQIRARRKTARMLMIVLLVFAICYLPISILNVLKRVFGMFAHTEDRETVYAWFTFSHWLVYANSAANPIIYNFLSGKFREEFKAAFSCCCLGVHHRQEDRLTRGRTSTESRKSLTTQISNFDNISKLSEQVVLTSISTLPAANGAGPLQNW
Protocol: (§4) Cells expressing human orexin 1 or human orexin 2 receptors, were seeded at 8,000 cells/well in 384 well black-walled clear bottom, poly-D-lysine coated plates. After 24 h, the medium was removed and cells were washed once with phosphate buffered saline and serum-deprived overnight in assay buffer (130 mM NaCl, 5.4 mM KCl, 1.8 mM CaCl2, 0.8 mM MgSO4, 0.9 mM NaH2PO4, 25 mM glucose, 20 mM HEPES, pH 7.4) containing bovine serum albumin (1% w/v).
On the day of the experiment, the cells seeded in black plates were treated with assay buffer containing the Ca^2+sensitive fluorescent dye Fluo-4-AM (2 μM), and probenecid (0.1 mM). After 1 h plates were washed twice with, and resuspended in, assay buffer containing probenecid (0.1 mM) using a multi plate washer. […] Fluorescence measurements were then continued every 1 S for 120 S followed by every 4 S for 240 S.
The measurements were typically made in two sequences:
(§5) Compounds of formula I were tested usually in a concentration range from 10^−9 M to 10^−5 M. In the second round, performed one hour later (to allow for equilibration), Orexin A was tested either in the absence (calibration curves, Orexin A agonist controls) or in the presence of compounds of formula I to determine antagonism.

human orexin 2 receptors [2] = biological target: T1, human orexin 2 receptors; assay: Radioligand binding assay ([3H]-SB649868 competition), hOx2R; conditions: competition with about 1 nM [3H]-SB649868; CHO or HEK cell membranes expressing human orexin 2 receptor; read-out: binding hOx2R Kd
Protocol: (§1) The cell pellet was either stored at −80° C. or used directly. Before the experiments, cell membranes were re-suspended in binding assay buffer (10 mM HEPES, 0.5% (w/v) bovine serum albumin, pH 7.5) by homogenisation with a Polytron homogeniser at 50 Hz for 20 s. Cell membranes were also used as made available by commercial providers.
(§2) Bound radioactivity was measured, and data were analysed with the program XLFIT or Graphpad Prism. Protein concentration was determined according to the Bradford/BioRad Protein Assay Kit.
(§3) In competition experiments, cell homogenates (150 μl) were incubated in assay buffer (10 mM HEPES, pH 7.5, 0.5% (w/v) bovine serum albumin, 5 mM MgCl2, 1 mMCaCl2, and tween 0.05%) for 1 h at room temperature with about 1 nM of the radioligand [^3H]-SB649868, 66 Ci/mmole, 50 μl), and with various concentrations of compounds of the invention (50 μl) in triplicates; non-specific binding was determined in the presence of almorexant (10 μM).

human orexin 1 receptors [3] = biological target: T2, human orexin 1 receptors (Homo sapiens, UniProt O43613); assay: Radioligand binding assay ([3H]-SB649868 competition), hOx1R; conditions: competition with about 1 nM [3H]-SB649868; CHO or HEK cell membranes expressing human orexin 1 receptor
T2 sequence (O43613 1-425): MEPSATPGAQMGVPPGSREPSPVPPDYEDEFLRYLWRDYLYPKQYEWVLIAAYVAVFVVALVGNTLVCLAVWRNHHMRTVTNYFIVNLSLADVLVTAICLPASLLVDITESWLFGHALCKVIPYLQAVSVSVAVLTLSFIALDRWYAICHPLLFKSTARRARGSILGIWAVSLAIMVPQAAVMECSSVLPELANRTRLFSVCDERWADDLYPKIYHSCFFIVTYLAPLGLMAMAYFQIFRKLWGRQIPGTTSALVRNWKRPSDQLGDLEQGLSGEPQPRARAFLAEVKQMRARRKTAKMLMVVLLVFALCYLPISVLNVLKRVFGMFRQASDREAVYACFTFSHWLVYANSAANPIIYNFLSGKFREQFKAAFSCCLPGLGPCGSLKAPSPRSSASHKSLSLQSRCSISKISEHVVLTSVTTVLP
Protocol: as §1, §2
as §3, with “μM). Reactions were terminated by vacuum filtration, 3 washes of ice cold wash buffer (Tris-HCl pH 7.4/10 mM, with NaCl 154 mM). Competition data is expressed in Table 2 as Kd [μM].” for “μM).”

human orexin 1 receptors [4] = biological target: T2, human orexin 1 receptors; assay: Calcium accumulation in cells (FLIPR), hOx1R; conditions: for inhibition at 10 µM: read-out: FLIPR hOx1R % inhibition value
Protocol: as §4
On the day of the experiment, the cells seeded in black plates were treated with assay buffer containing the Ca^2+sensitive fluorescent dye Fluo-4-AM (2 μM), and probenecid (0.1 mM). After 1 h plates were washed twice with, and resuspended in, assay buffer containing probenecid (0.1 mM) using a multi plate washer. The plates were placed into a FLIPR II (Fluorometric Imaging Plate Reader, Molecular Devices, Sunnyvale, Calif., USA) and baseline fluorescence (fluorescence light units, FLU) was measured (5 measurements, 2 S each; laser excitation 488 nm at 0.6-1 W, CCD camera exposure 0.4 s) before addition of buffer alone (basal) or containing test compounds (either compound of formula I alone, agonist alone or agonist in the presence of various concentrations of compounds of formula I). Fluorescence measurements were then continued every 1 S for 120 S followed by every 4 S for 240 S.
as §5
Inhibition data is expressed in Table 2 as Ki [μM], converted by the Cheng and Prusoff correction (Ki=IC50/1+(L/EC50)), where IC50 is the 50% inhibition value determined in concentration response inhibition curves, EC50 is the half maximal activation concentration determined for orexin A in concentration response curves and L is the concentration of orexin A used in inhibition experiments performed in with a submaximal concentration of orexin A in the presence of up to 8 increasing concentrations of compound of formula I. Inhibition data is also expressed in Table 2 as % inhibition value measured at a concentration of 10 μM of selected compounds of formula I.

| SMILES | Ki (human orexin 2 receptors [1]) [nM] | Kd (human orexin 2 receptors [2]) [nM] | Kd (human orexin 1 receptors [3]) [nM] | inhibition at 10 µM (human orexin 1 receptors [4]) [%] | Ki (human orexin 1 receptors [4]) [nM] |
| --- | --- | --- | --- | --- | --- |
| Cc1cc(C)nc(N2CCC3(CCCN(Cc4ccccc4-n4nccn4)C3=O)CC2)n1 [Example 2, 2-(2-(2H-1,2,3-triazol-2-yl)benzyl)-9-(4,6-dimethylpyrimidin-2-yl)-2,9-diazaspiro[5.5]undecan-1-one] | 86 | 259 | > 10000 | 22 | – |
| Cc1cc(C)nc(N2CCC3(CCCC(=O)N3Cc3cccc4[nH]ccc34)CC2)n1 [Example 3, 1-((1H-indol-4-yl)methyl)-9-(4,6-dimethylpyrimidin-2-yl)-1,9-diazaspiro[5.5]undecan-2-one] | 0.9 | 12 | 483 | – | 381 |
| COc1cc(C)nc(N2CCC3(CCCN(Cc4c[nH]c5ccccc45)C3=O)CC2)n1 [Example 4, 2-((1H-indol-3-yl)methyl)-9-(4-methoxy-6-methylpyrimidin-2-yl)-2,9-diazaspiro[5.5]undecan-1-one] | 2.2 | 43 | 863 | – | 135 |
| Cc1cc(C)nc(N2CCC3(CCCN(Cc4c[nH]c5ccccc45)C3=O)CC2)n1 [Example 5, 2-((1H-indol-3-yl)methyl)-9-(4,6-dimethylpyrimidin-2-yl)-2,9-diazaspiro[5.5]undecan-1-one] | 10 | 35 | 966 | – | 870 |
| Cc1cc(C)nc(N2CCC3(CCCN(Cc4cn(C)c5ccccc45)C3=O)CC2)n1 [Example 6, 9-(4,6-dimethylpyrimidin-2-yl)-2-((1-methyl-1H-indol-3-yl)methyl)-2,9-diazaspiro[5.5]undecan-1-one] | 26 | 153 | 4540 | – | 1530 |
| Cc1cncc(N2CCC3(CCCC(=O)N3Cc3c[nH]c4ccccc34)CC2)n1 [Example 7, 1-((1H-indol-3-yl)methyl)-9-(6-methylpyrazin-2-yl)-1,9-diazaspiro[5.5]undecan-2-one] | 86 | 698 | 7440 | 14 | – |
| Cc1cccc(N2CCC3(CCCN(Cc4c[nH]c5ccccc45)C3=O)CC2)n1 [Example 9, 2-((1H-indol-3-yl)methyl)-9-(6-methylpyridin-2-yl)-2,9-diazaspiro[5.5]undecan-1-one] | 54 | 265 | 2430 | – | 1560 |
| N#Cc1ccnc(N2CCC3(CCCN(Cc4c[nH]c5ccccc45)C3=O)CC2)c1 [Example 10, 2-(2-((1H-indol-3-yl)methyl)-1-oxo-2,9-diazaspiro[5.5]undecan-9-yl)isonicotinonitrile] | 20 | 116 | 1720 | – | 1190 |
| Cc1cncc(N2CCC3(CCCN(Cc4c[nH]c5ccccc45)C3=O)CC2)n1 [Example 11, 2-((1H-indol-3-yl)methyl)-9-(6-methylpyrazin-2-yl)-2,9-diazaspiro[5.5]undecan-1-one] | 23 | 244 | 6590 | – | 1390 |
| Cc1ccnc(N2CCC3(CCCN(Cc4c[nH]c5ccccc45)C3=O)CC2)n1 [Example 12, 2-((1H-indol-3-yl)methyl)-9-(4-methylpyrimidin-2-yl)-2,9-diazaspiro[5.5]undecan-1-one] | 30 | 56 | 1170 | – | 1500 |
| COc1ccnc(N2CCC3(CCCN(Cc4c[nH]c5ccccc45)C3=O)CC2)n1 [Example 13, 2-((1H-indol-3-yl)methyl)-9-(4-methoxypyrimidin-2-yl)-2,9-diazaspiro[5.5]undecan-1-one] | – | 74 | 924 | – | 527 |
| Cc1cc(C)nc(N2CCC3(CCCN(Cc4ccccc4-c4ccco4)C3=O)CC2)n1 [Example 15, 9-(4,6-dimethylpyrimidin-2-yl)-2-(2-(furan-2-yl)benzyl)-2,9-diazaspiro[5.5]undecan-1-one] | 13 | 109 | 2830 | – | 855 |
| Cc1cc(C)nc(N2CCC3(CCCN(Cc4cccc5c4OCCO5)C3=O)CC2)n1 [Example 20, 2-((2,3-dihydrobenzo[b][1,4]dioxin-5-yl)methyl)-9-(4,6-dimethylpyrimidin-2-yl)-2,9-diazaspiro[5.5]undecan-1-one] | 42 | 211 | 8550 | – | 2530 |
| Cc1cc(C)nc(N2CCC3(CCCN(Cc4cccc(-c5noc(C)n5)c4)C3=O)CC2)n1 [Example 22, 9-(4,6-dimethylpyrimidin-2-yl)-2-(3-(5-methyl-1,2,4-oxadiazol-3-yl)benzyl)-2,9-diazaspiro[5.5]undecan-1-one] | 31 | 151 | 1300 | – | 755 |
| Cc1cc(C#N)cc(N2CCC3(CCCN(Cc4cccc(-c5ncccn5)c4)C3=O)CC2)n1 [Example 28, 2-methyl-6-(1-oxo-2-(3-(pyrimidin-2-yl)benzyl)-2,9-diazaspiro[5.5]undecan-9-yl)isonicotinonitrile] | 49 | 150 | 5140 | – | 1110 |
| Cc1cc(C#N)cc(N2CCC3(CCCN(Cc4cccc(-c5ncc(C)o5)c4)C3=O)CC2)n1 [Example 29, 2-methyl-6-(2-(3-(5-methyloxazol-2-yl)benzyl)-1-oxo-2,9-diazaspiro[5.5]undecan-9-yl)isonicotinonitrile] | 28 | 100 | 907 | – | 351 |
| Cc1cc(C)nc(N2CCC3(CCCN(Cc4cccc(-c5ncccn5)c4)C3=O)CC2)n1 [Example 31, 9-(4,6-dimethylpyrimidin-2-yl)-2-(3-(pyrimidin-2-yl)benzyl)-2,9-diazaspiro[5.5]undecan-1-one] | 92 | 145 | 3810 | – | 1610 |
| Cc1cc(C#N)nc(N2CCC3(CCCN(Cc4cccc(-c5ncccn5)c4)C3=O)CC2)n1 [Example 32, 6-methyl-2-(1-oxo-2-(3-(pyrimidin-2-yl)benzyl)-2,9-diazaspiro[5.5]undecan-9-yl)pyrimidine-4-carbonitrile] | 59 | 383 | > 10000 | – | 1860 |
| N#Cc1ccnc(N2CCC3(CCCN(Cc4cccc(-c5ncccn5)c4)C3=O)CC2)n1 [Example 33, 2-(1-oxo-2-(3-(pyrimidin-2-yl)benzyl)-2,9-diazaspiro[5.5]undecan-9-yl)pyrimidine-4-carbonitrile] | 37 | 220 | 744 | – | 477 |
| N#Cc1cccc(N2CCC3(CCCN(Cc4cccc(-c5ncccn5)c4)C3=O)CC2)n1 [Example 34, 6-(1-oxo-2-(3-(pyrimidin-2-yl)benzyl)-2,9-diazaspiro[5.5]undecan-9-yl)picolinonitrile] | 73 | 674 | 2290 | – | 554 |
| COC(=O)c1ccc2[nH]cc(CN3CCCC4(CCN(c5nc(C)cc(C)n5)CC4)C3=O)c2c1 [Example 115, Methyl 3-((9-(4,6-dimethylpyrimidin-2-yl)-1-oxo-2,9-diazaspiro[5.5]undecan-2-yl)methyl)-1H-indole-5-carboxylate] | – | 3 | 52 | – | – |
